Reference: publication PMC10462762, “Chemoenzymatic synthesis of genetically-encoded multivalent liquid N-glycan arrays” (Nature Communications, 2023)

Biological target: T1, α-(2→6)-sialyltransferase from Photobacterium damselae (Pd26ST) (Photobacterium damselae, UniProt O66375)
T1 construct: gene bst; recombinant, expressed and purified as in supplementary information
T1 sequence (O66375 16-675): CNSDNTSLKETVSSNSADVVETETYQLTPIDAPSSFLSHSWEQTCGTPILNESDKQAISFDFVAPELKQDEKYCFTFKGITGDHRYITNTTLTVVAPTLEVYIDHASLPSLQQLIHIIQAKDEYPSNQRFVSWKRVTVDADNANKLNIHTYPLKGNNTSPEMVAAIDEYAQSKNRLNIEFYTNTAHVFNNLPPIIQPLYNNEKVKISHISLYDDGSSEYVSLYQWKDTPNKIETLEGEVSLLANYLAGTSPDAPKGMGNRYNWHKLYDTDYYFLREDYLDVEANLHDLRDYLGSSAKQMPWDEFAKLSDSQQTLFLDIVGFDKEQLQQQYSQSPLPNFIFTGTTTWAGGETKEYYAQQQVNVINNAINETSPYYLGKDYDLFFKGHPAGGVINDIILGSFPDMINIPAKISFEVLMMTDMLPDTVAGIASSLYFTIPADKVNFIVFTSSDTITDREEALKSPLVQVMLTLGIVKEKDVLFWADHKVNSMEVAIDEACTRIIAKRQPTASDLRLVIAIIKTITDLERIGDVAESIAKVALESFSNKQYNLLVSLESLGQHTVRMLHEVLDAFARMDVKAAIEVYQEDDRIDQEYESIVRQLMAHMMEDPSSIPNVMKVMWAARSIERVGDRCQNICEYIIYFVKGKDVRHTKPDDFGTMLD
Experiment: sialylation of phage-displayed LacNAc / Lac, MALDI-TOF MS
Assay type: biochemical
Conditions: donor substrate; acceptor LacNAc- and lactose-phage; 9 h

Compound: CC(=O)N[C@H]1[C@H]([C@H](O)[C@H](O)CO)O[C@](OP(=O)(O)OC[C@H]2O[C@@H](n3ccc(N)nc3=O)[C@H](O)[C@@H]2O)(C(=O)O)C[C@@H]1O [CMP-Neu5Ac]
- sialylation of phage-displayed LacNAc / Lac, MALDI-TOF MS: (Pd26ST) and cytidine-5’-monophosphate-N-acetylneuraminic acid (CMP-Neu5Ac)
